For data set [1], the target named is pepsin (Sus scrofa, UniProt P00791).
Procedure: Stability of PLPs Methods I: For enzyme-induced cleavage experiments, the molar concentration of enzymes was set to 0.1 μM. The concentration of side-chain peptides (having sequence identity of SEQ ID: 1) varied in the range of 50-200 μM. For each enzyme, temperature was set for optimal enzyme activity. In a typical experiment, P1 or HV3-TAT was dissolved in DPBS (pH 7.4) or hydrochloric acid solution (pH 2), to obtain a stock polymer/peptide solution with a peptide concentration of 200 μM. Next, 5 μL of enzyme stock solution (10 μM) was added into 500 μL of the polymer/peptide solution which was subsequently stirred in a preheated oil bath at 37° C. In this case, the molar ratio of peptide substrate to enzymes was 2000:1. During the cleavage, aliquots were taken for HPLC analysis at predetermined time points. Each degradation experiment was repeated three times. Enzyme pretreated P1 was also run on SDS-PAGE and visualized with Coomassie Blue staining.
Data set [2] relates to R6/2 mice. Nature of the data set: Immunohistochemistry of DARPP-32 in striatum. Format: in vivo, mouse. As to conditions: over saline control. The source says: FIG. 33: Quantification of immunohistochemistry of DARPP32 in striatum of WT and R6/2 mice after treatment with PLP or HV3-TAT (immunohistochemistry stain not shown). p-value for: WT veh as compared to R62 veh: 0.0010; WT+P1 as compared to R62 veh: 0.0019; R62 veh as compared to R62+HV3-TAT: 0.0496; R62 veh as compared to R62+P1: 0.0104; R62+HV3-TAT as compared to R62+P1: 0.9593.
In vivo Efficacy Methods—Immunohistochemistry: Mice were anaesthetized with isoflurane and transcardially perfused with PBS. After post-fixed with 4% paraformaldehyde, brains were sliced and frozen. Brain sections (20 μm, coronal) were used for immunohistochemical localization of DARPP-32 (1:14000, Abcam) using the IHC Select HRP/DAB kit (Millipore). Imaging of slices was conducted on an all-in-one fluorescence microscope (Keyence). The same image exposure times and threshold settings were used for sections from all treatment groups. Quantitation of DARPP-32 immunostaining was conducted using NIH image J software.

In data set [3] the test system is C3a.
Source text: Immunocompatibility Methods: The interaction of a compound with blood will affect immune response, biodistribution, and clearance. The complement system is a key player in the innate immune response, and thus assaying the interaction between the complement system and PLPs serves as a litmus test to assess inherent inflammatory activity. Complement component C3a is implicated in all three of the complement activation pathways (classic, alternative, and lectin), thus a significant increase in C3a would warrant further investigation into specific activation of the innate and adaptive immune systems. […] In this assay, mouse weight was estimated as 35 g with an average blood volume of 2 mL for dosing preparation. Tested compounds were incubated at a ratio of 1:250 and 1:500 of compound to human serum for 4 hours prior to dilution and start of the assay. Using the C3a ELISA assay, and following manufacturer's protocol, samples were diluted with sample diluent and C3a control reconstituted with water. […] Serum samples and controls were incubated in C3a antibody coated wells for 2 hours with gentle shaking, before they were gently washed 3× with washing buffer, and primary antibody biotin solution administered to wells. […] After a final wash, developing substrate was added for 30 minutes before imaging on plate reader at 450 nM.
Data set [4] has as its system HdhQ111 cells. Nature of the data set: Cell viability (cell rescue) of serum-starved HdhQ111 cells. Format: cell-based, mouse. The settings on record: 3 μM with respect to peptide, once a day for 3 days; compared to the vehicle control. As for the experimental part: FIG. 3A: Cell viability of HV3-TAT peptide and PLPs. Compounds treated to the HdhQ111 cells once a day for 3 days. Concentration was 3 μM with respect to peptide. FIG. 3B: VCP binding assay results for HV3-TAT, P1, P2, and P4.
Cell Viability Methods: In vitro assays were carried out to examine the bioactivity of the PLPs, P1, P2, P3, and P4 and to compare against the known, active HV3-TAT. […] HdhQ111 cells were immortalized from knock-in mice carrying 111 CAG repeats in the mouse Htt gene.
To verify that the PLPs retain bioactivity after being exposed to enzymes or serum treatments, the viability of HD mouse mutant striatal HdhQ111 cells was assessed following treatment with HV3-TAT and P1. […] Cells were maintained at 33° C. and 5% CO2 with a relative humidity of 95%. HdQ111 cells were plated in 96-well plates at a density of 5000 per well and then left to attach for 24 h. Cells were treated with HV3-TAT or PLPs at 3 μM with respect to peptide once a day, for 3 days. The medium was replaced every day. After 72 h, cells were washed 3 times with PBS buffer. At this point, 20 μL of CTB reagent in 80 uL of medium was added, and the cells incubated for 3 hours at 37° C. Fluorescence was measured at 590 nm with excitation at 560 nm using a Perkin Elmer EnSpire plate reader. The average background fluorescence of CTB in media without cells was subtracted from the average fluorescence readings of the experimental wells. Viability was calculated as the average background-subtracted signal in a well compared to that of a negative control well (treatment with vehicle or media). Three replicates were performed for each independent sample. 10% DMSO was used as a positive control and untreated cells in complete medium as a negative control. Viability is reported as a percentage of untreated cells.

Data set [5] deals with T1, VCP (Homo sapiens, UniProt P55072).
T1 construct: purchased Antibodies-online
T1 sequence (P55072 whole entry, species assumed): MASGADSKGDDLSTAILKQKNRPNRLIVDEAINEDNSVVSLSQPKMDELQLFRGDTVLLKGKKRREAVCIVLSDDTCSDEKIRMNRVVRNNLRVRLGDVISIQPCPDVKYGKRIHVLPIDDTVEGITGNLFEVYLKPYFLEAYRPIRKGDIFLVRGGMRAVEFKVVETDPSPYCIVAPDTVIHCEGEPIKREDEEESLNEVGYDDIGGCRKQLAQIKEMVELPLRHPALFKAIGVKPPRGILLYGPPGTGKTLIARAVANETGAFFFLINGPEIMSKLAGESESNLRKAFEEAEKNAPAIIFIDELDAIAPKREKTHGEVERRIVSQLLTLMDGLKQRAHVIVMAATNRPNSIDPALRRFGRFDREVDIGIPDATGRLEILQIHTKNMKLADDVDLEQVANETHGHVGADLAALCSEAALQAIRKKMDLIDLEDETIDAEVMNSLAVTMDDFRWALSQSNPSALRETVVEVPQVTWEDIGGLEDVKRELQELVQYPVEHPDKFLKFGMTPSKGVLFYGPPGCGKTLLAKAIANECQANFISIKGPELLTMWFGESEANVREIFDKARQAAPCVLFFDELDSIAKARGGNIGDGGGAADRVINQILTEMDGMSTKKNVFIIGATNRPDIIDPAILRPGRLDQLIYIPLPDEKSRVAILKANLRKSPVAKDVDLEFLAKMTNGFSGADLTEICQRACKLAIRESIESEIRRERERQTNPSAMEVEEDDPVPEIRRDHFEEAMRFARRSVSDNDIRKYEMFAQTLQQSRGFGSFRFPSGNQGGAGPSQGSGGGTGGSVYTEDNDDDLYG
Nature of the data set: Bio-layer interferometry (BLItz) binding to VCP. The method, then: FIG. 14A-14B: Biolayer Interferometry (BLItz) measurements from in vitro assay evaluating binding between P1 and VCP (FIG. 14A) and between HV3-TAT peptide and VCP (FIG. 14B). FIG. 14A: lines from top to bottom: 100 μM, 10 μM, and 750 nM. FIG. 14B: lines from top to bottom: 10 μM, 7.5 μM, 5 μM, and 1.25 μM.
BLI Methods: With cellular VCP engagement verified as discussed in Example 2 (and shown in FIG. 3B), P1 was further assessed for VCP binding via Bio-layer Interferometry (BLI) to further study the interaction compared to HV3-TAT peptide. Binding affinity was measured by using BLItz instrument. The anti-HIS sensor (HIS2) was hydrated before the installation. After the sensor installation to the BLItz instrument, histidine tagged VCP proteins (50 μg/ml in sodium acetate buffer at pH 6.5) were immobilized on the sensor. HV3-TAT and P1 were dissolved in Tris buffer (pH 8.4) with a range of concentrations. Using BLItz instrument, the dissociation constant (KD), on-rate (ka) and off-rate (kd) of each analyte were measured.

Data set [6] deals with C57BL/6J mice. Nature of the data set: Toxicity in WT C57BL/6J mice (CBC, serum chemistry, H&E pathology). Format: in vivo, mouse. The settings on record: 3 mg/kg with respect to peptide, osmotic subcutaneous pump, 8 weeks, vs saline. The source says: FIG. 21: Optical micrographs for toxicity pathology analysis. H&E stained tissue; scale bar: 200 μm.
FIG. 22: Quantification of in vivo results from toxicity pathology analysis as depicted in FIG. 21. Left: pathology severity scoring of H&E stained tissue; Middle: red blood cell count; Right: white blood cell count.
FIG. 23A-23D: Quantification of in vivo results from toxicity pathology analysis as depicted in FIG. 21. FIG. 23A: represents hemoglobin count; FIG. 23B: total protein count; FIG. 23C: ALT (alanine transaminase) count; FIG. 23D: total bilirubin count.
Methods: To assess the toxicity of P1 at the administrable dose in healthy animals, as compared to HV3-TAT at its operating dose, and saline for the negative control, male C57BL/6J mice were assigned to 3 groups (n=3-4 per group) and administered via osmotic subcutaneous pump (Alzet) either HV3-TAT at 3 mg/kg, P1 at 3 mg/kg, all with respect to peptide concentration, or saline as a negative control for 8 weeks. Animals were checked weekly after drug administration for mortality. At sacrifice, blood was collected from each animal via cardiac puncture using a 25-gauge needle while under isoflurane, and then animals were sacrificed and major organs (brain, lung, heart, liver, spleen, spinal cord, and kidneys) collected, weighed, and stored in 10% buffered formalin followed by paraffin embedment.

The test system of data set [7] is red blood cells.
Procedure: Hemocompatibility Methods: Before in vivo studies could be conducted, hemocompatibility of the compounds was also assessed via activated clotting time (ACT) and hemolytic activity. Peptide-in-blood and polymer-in-blood dilutions were performed at volume ratios of 1:10000, 1:5000, 1:1000, 1:500, 1:250, and in some cases 1:100.
Regarding the hemolytic activity assay, the hemolytic assessments required 25 ml of whole human blood mixed with Na Citrate anticoagulant to be obtained. To prepare solution of erythrocytes, whole blood was centrifuged at 500 g for 5 minutes, and plasma aspirated. The same volume of plasma removed was replaced with 150 mM NaCl buffer (in Millipore water). Tube was inverted to mix, centrifuged at 500 g for 5 min, and supernatant removed, and this step repeated 2×. Finally, red blood cells (RBC) were resuspended in PBS. 10 μL of compound was added to 190 μL of diluted red blood cell erythrocyte solution in a 96 well plate (n=4). 20% Triton X acted as the positive control, and PBS acted as the negative control/vehicle. Plates were incubated at 37° C. for 1 hour. Plates were centrifuged for 5 min at 500×g to pellet intact erythrocytes. Using a multichannel pipet, 100 μl of supernatant was transferred from each well into a clear, flat-bottomed 96-well plate. Absorbance of supernatants was measured with a plate reader at 405 nM
The subject of data set [8] is HdhQ111 cells. Nature of the data set: Mitochondrial fragmentation assay. Format: cell-based, mouse. The settings on record: compared to vehicle treatment group, at least 100 cells per group. As for the experimental part:
FIG. 8: Mitochondrial fragmentation assay. The percentage of HdhQ111 cells with fragmented mitochondria relative to the total number of cells was quantitated. At least 100 cells per group were counted.
FIG. 9: Mitochondrial fragmentation assay. Mitochondrial morphology was determined by staining cells with anti-Tom20 antibody. Nuclei: Hoechst 33342 stain. […] Scale Bars: 60 μm; 12 μm for inset.
Mitochondrial Fragmentation Methods: As preventing the fragmentation of the mitochondria is important for maintaining the health of striatal cells in the HD in vitro model, the PLP's abilities were tested in this regard.

Where [9] appears, read: bio-layer interferometry, VCP protein.

Where no end group is shown, it is not given here.

Sequence of pepsin (P00791 60-385): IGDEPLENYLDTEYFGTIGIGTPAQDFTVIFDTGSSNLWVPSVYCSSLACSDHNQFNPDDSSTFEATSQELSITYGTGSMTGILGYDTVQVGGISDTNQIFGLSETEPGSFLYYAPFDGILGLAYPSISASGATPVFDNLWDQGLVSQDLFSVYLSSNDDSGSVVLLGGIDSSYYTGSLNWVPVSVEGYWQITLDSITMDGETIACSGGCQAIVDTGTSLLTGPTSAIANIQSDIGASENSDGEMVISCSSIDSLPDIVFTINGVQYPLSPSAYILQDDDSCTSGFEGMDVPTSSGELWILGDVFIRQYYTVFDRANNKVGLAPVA

Consider “P1: PLP homopolymer having peptide side chains of SEQ ID: 1 (HVLVMSATRR), made by ROMP of norbornene peptide monomer M1 (also: side chains of polynorbornene homopolymer (PLP, ROMP of norbornene peptide monomer))”, for which the cleavage by pepsin result in data set [1] was “no cleavage observed”. For the same substance, in data set [2], the “DARPP-32 levels in striatum (immunohistochemistry)” value is “significantly increased DARPP-32 levels”. Besides, the “C3a complement activation compared to the vehicle” value in data set [3] is on record as “did not show a statistically significant difference”. Besides, the cell viability entry in data set [4] is on record as “higher significance than P3”. Further, the “decrease in dissociation constant compared to the HV3-TAT peptide” value in data set [5] (BLI, VCP) is on record as “more than 150 fold”. Besides, in data set [6], the “complete blood count (CBC) panel and serum chemical analysis” value is recorded as “no significant difference between groups”; the “pathology of H&E stained tissues” value was “No pathological differences”. Moreover, in data set [7], the hemolytic activity result is on record as “non-significant”. In data set [8], the fragmented mitochondria entry is listed as “significantly fewer fragmented mitochondria”.

Regarding “peptide sequence HVLVMCAT (HV3) coupled to the cell penetrating, HIV-derived TAT peptide [HV3-TAT, reference compound]”, in data set [1] (isolated enzyme pepsin, 50 min, 200 μM), the “percent cleavage by pepsin” value is 100%. For the same substance, the cell viability result in data set [4] is reported as “significant increases in cell viability”. Besides, binding in data set [5] (BLI, VCP) was put at a Kd of 14 µM. In data set [5] (setting [9]), the “koff” value was 0.023 s⁻¹ and the “kon” value was 1600 M⁻¹ s⁻¹. Besides, in data set [6], the “complete blood count (CBC) panel and serum chemical analysis” value is “no significant difference between groups”; the “pathology of H&E stained tissues” value is recorded as “No pathological differences”. Moreover, the fragmented mitochondria entry in data set [8] is recorded as “significantly fewer fragmented mitochondria”.

(Values after patent US20240110004A1 (Northwestern University, priority 2022, published 2024).)
